For this test, the target named is T1, human EP3 receptor (Homo sapiens, UniProt P43115).
T1 construct: expressed in transfected cells; host or cells: CHO K1 (Chinese Hamster Ovary), stably co-transfected with Galpha16 and mitochondrial clytin
T1 sequence (P43115 1-390): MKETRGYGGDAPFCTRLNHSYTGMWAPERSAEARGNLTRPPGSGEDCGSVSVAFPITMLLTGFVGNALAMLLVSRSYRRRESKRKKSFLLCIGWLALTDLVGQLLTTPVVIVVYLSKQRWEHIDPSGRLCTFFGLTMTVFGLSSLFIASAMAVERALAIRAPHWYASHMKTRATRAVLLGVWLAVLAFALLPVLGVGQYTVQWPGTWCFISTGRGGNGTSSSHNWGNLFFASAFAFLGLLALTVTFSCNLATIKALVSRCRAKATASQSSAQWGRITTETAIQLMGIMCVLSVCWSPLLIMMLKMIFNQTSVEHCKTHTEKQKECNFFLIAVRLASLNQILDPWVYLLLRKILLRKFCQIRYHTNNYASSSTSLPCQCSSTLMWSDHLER
In words: Cellular in vitro assay for determining EP3 receptor activity (human EP3 cell line, sulprostone-stimulated calcium luminescence). Type of test: cell-based. The following applies: CHO cells expressing human EP3 and mitochondrial Clytin; antagonist mode, sulprostone at EC50; read-out: EP3 CHO mtCLY ANTAG IC50. Here is the method:
B-1. Cellular In Vitro Assay for Determining EP3 Receptor Activity
The identification of antagonists of the EP3 receptor from humans and rats as well as the quantification of the activity of the compounds of the invention was carried out using recombinant cell lines. These cell lines originally derive from a hamsters ovary epithelial cell (Chinese Hamster Ovary, CHO K1, ATCC: American Type Culture Collection, Manassas, Va. 20108, USA). The test cell lines constitutively express the human or rat EP3 receptors. The naturally Gαi-coupled human and rat EP3 receptors were stably co-transfected with Gα16 into cells that are also stably transfected with a mitochondrial form of the calcium-sensitive photoproteins Clytin (human EP3) or Photina (rat EP3), which, after reconstitution with the cofactor coelenterazine, emit light when there are increases in free calcium concentrations (Nature 1992, 358, 325-327; Gene 1995, 153 (2), 273-274). The resulting EP3 receptor cells react to stimulation of the recombinantly expressed EP3 receptors by the agonist sulprostone with intracellular release of calcium ions, which can be quantified by the resulting photoprotein luminescence. Antagonists inhibit the receptor signaling, leading to reduced calcium release and luminescence. The bioluminescence of the cell lines is detected using a suitable luminometer (Trends Pharmacol. Sci. 1996, 17, 235-237).
Human and Rat EP3 Cell Lines:
On the day before the assay, the cells are plated out in culture medium (OptiMEM, 1% FCS, 2 mM glutamine, 10 mM HEPES, 5 μg/ml coelenterazine) in 384-well microtiter plates and kept in a cell incubator (96% humidity, 5% v/v CO2, 37° C.). On the day of the assay, test compounds in various concentrations are placed for 10 minutes in the wells of the microtiter plate before the agonist sulprostone at EC50 concentration is added. The resulting light signal is measured immediately in a luminometer. All concentrations are measured in quadruples.
Regarding `Cc1cccc2ncc(-c3cn4nc(C(=O)NC(CCO)c5ccccc5Cl)c(C(C)C)c4c(=O)[nH]3)cc12` (stereo not drawn) [Example 4-44, N-[1-(2-Chlorophenyl)-3-hydroxypropyl]-3-isopropyl-6-(5-methyl-3-quinolyl)-4-oxo-5H-pyrazolo[1,5-a]pyrazine-2-carboxamide], the IC50 worked out at 1.45 nM.
To `CC[C@H](C)NC(=O)c1nn2cc(-c3ccc(Cl)c(C)c3)[nH]c(=O)c2c1C1CC1` [6-331] belongs 4.85 nM; to `Cc1ccc(-c2cn3nc(C(=O)NC(C(C)C)C(O)C(F)(F)F)cc3c(=O)[nH]2)cc1C` (stereo not drawn) [6-351], 7 nM; to `COCc1c(C(=O)N[C@@H](c2ccc(F)cc2)C(C)(C)O)nn2cc(-c3ccc(Cl)c(F)c3)[nH]c(=O)c12` [6-625], 9.95 nM.
To `Cc1cccc2ncc(-c3cn4nc(C(=O)N[C@@H]5CCCc6ccccc65)c(C(C)C)c4c(=O)[nH]3)cc12` [Example 4-5, 6-(5-Methylquinolin-3-yl)-4-oxo-3-(propan-2-yl)-N-[(7R)-1,2,3,4-tetrahydronaphthalen-1-yl]-4,5-dihydropyrazolo[1,5-a]pyrazine-2-carboxamide] belongs 7.7 nM; to `Cc1c(C(=O)N[C@@H](C)c2cnccn2)nn2c(C)c(-c3ccc4ccccc4c3)[nH]c(=O)c12` [Example 3-66, 3,7-Dimethyl-6-(naphthalen-2-yl)-4-oxo-N-[(7S)-1-(pyrazin-2-yl)ethyl]-4,5-dihydropyrazolo[1,5-a]pyrazine-2-carboxamide], 7.45 nM; to `CC(C)(O)[C@@H](NC(=O)c1nn2cc(-c3ccc(C(F)(F)F)c(Cl)c3)[nH]c(=O)c2c1C1CC1)c1ccc(F)cc1` [6-598], 2.35 nM.
With `COc1ccc(-c2cn3nc(C(=O)N[C@@H](c4ccc(F)cc4)C(F)(F)CO)c(C4CC4)c3c(=O)[nH]2)cc1F` [6-586] the figure was 1.35 nM.
Regarding `CCN1CCC(NC(=O)c2nn3cc(-c4ccc(C)c(F)c4)[nH]c(=O)c3c2C2CC2)(C(F)(F)F)C1` (racemic) [6-404], the IC50 was 5.95 nM.
As for `COc1ccc(C(C)NC(=O)c2nn3c(C)c(-c4ccc5ccccc5c4)[nH]c(=O)c3c2C)cn1` (stereo not drawn) [Example 3-38, N-[1-(6-Methoxy-3-pyridyl)ethyl]-3,7-dimethyl-6-(2-naphthyl)-4-oxo-5H-pyrazolo[1,5-a]pyrazine-2-carboxamide], the half-maximal inhibitory concentration (IC50) came out at 1.85 nM.
To `CN(C)C(CNC(=O)c1cc2c(=O)[nH]c(-c3ccc4ccccc4c3)cn2n1)c1cccc(C(F)(F)F)c1` (stereo not drawn) [Example 2-15, N-{2-(Dimethylamino)-2-[3-(trifluormethyl)phenyl]ethyl}-6-(2-naphthyl)-4-oxo-4,5-dihydropyrazolo[1,5-a]pyrazine-2-carboxamide] belongs 9.55 nM; to `Cc1ccc(-c2cn3nc(C(=O)NC4(c5ccc(F)cc5)COC4)cc3c(=O)[nH]2)cc1C` [6-55], 1.53 nM.
With `CC(NC(=O)c1cc2c(=O)[nH]c(-c3ccc4ccccc4c3)cn2n1)c1ccc(Cl)cc1Cl` (stereo not drawn) [Example 2-47, N-[1-(2,4-Dichlorphenyl)ethyl]-6-(2-naphthyl)-4-oxo-4,5-dihydropyrazolo[1,5-a]pyrazine-2-carboxamide] the figure was 3.27 nM; with `Cc1cc(-c2cn3nc(C(=O)N[C@H](c4ccc(F)cc4)C(C)(C)O)c(C4CC4)c3c(=O)[nH]2)ccc1C(F)(F)F` [6-134], 8.6 nM; with `Cc1ccc(-c2cn3nc(C(=O)N[C@@H](c4ccc(F)cc4)C(C)(C)O)c(C4CCC4)c3c(=O)[nH]2)cc1C` [6-577], 2.7 nM.
With `Cc1cccc2ncc(-c3cn4nc(C(=O)NC(C)c5ccc(S(C)(=O)=O)cc5)c(C(C)C)c4c(=O)[nH]3)cc12` (stereo not drawn) [Example 4-61, 3-Isopropyl-6-(5-methyl-3-quinolyl)-N-[1-(4-methylsulfonylphenyl)ethyl]-4-oxo-5H-pyrazolo[1,5-a]pyrazine-2-carboxamide], the half-maximal inhibitory concentration (IC50) was 1.8 nM.
On to `CN1CC(NC(=O)c2nn3cc(-c4ccc5c(c4)OCCO5)[nH]c(=O)c3c2C2CC2)(c2ccc(F)cc2)C1` [6-467], for which the IC50 was 2.35 nM.
With `Cc1ccc(-c2[nH]c(=O)c3c(C(F)(F)F)c(C(=O)N[C@H](CCO)c4ccc(F)cc4)nn3c2C)cc1C` [Example 1-122, 6-(3,4-Dimethylphenyl)-N-[(1R)-1-(4-fluorophenyl)-3-hydroxpropyl]-7-methyl-4-oxo-3-(trifluoromethyl)-4,5-dihydropyrazolo[1,5-a]pyrazine-2-carboxamide], the IC50 was 4.13 nM.
With `Cc1cc(-c2cn3nc(C(=O)NC4(c5ccc(F)cc5)CN(C)C4)c(C(F)(F)C(F)(F)F)c3c(=O)[nH]2)ccc1Cl` [6-480] the figure was 3.05 nM; with `Cc1ccc(-c2cn3nc(C(=O)N[C@@H](c4ccc(F)cc4)C(F)(F)CO)c(C)c3c(=O)[nH]2)cc1F` [6-412], 1.43 nM.
For the molecule `COCc1c(C(=O)N[C@H](CCO)c2ccccc2)nn2cc(-c3ccc4ccccc4c3)[nH]c(=O)c12` [Example 1-76, N-[(1R)-3-Hydroxy-1-phenylpropyl]-3-(methoxymethyl)-6-(naphthalen-2-yl)-4-oxo-4,5-dihydropyrazolo[1,5-a]pyrazine-2-carboxamide], the IC50 stood at 0.725 nM.
With `COc1ccc(C(CCO)NC(=O)c2nn3cc(-c4cnc5cccc(C)c5c4)[nH]c(=O)c3c2C(C)C)cc1` (stereo not drawn) [Example 4-83, N-[3-Hydroxy-1-(4-methoxyphenyl)propyl]-3-isopropyl-6-(5-methyl-3-quinolyl)-4-oxo-5H-pyrazolo[1,5-a]pyrazine-2-carboxamide] the figure was 2 nM; with `Cc1cc(-c2cn3nc(C(=O)N[C@@H](C)C(C)C)c(C4CC4)c3c(=O)[nH]2)ccc1Cl` [6-302], 2.95 nM; with `COCc1c(C(=O)N[C@@H](c2ccc(F)cc2)C(C)(C)O)nn2cc(-c3ccc(Cl)c(C)c3)[nH]c(=O)c12` [6-623], 3.15 nM.
With `Cc1c(C(=O)NC(CO)c2ccc(Br)cc2)nn2c(C)c(-c3ccc4ccccc4c3)[nH]c(=O)c12` (stereo not drawn) [Example 3-69, N-[1-(4-Bromophenyl)-2-hydroxyethyl]-3,7-dimethyl-6-(2-naphthyl)-4-oxo-5H-pyrazolo[1,5-a]pyrazine-2-carboxamide] the figure was 2.5 nM.
To `CCN1CC(NC(=O)c2nn3cc(-c4ccc5ccccc5c4)[nH]c(=O)c3c2C(F)(F)F)(c2ccc(F)cc2)C1` [Example 1-126, N-[1-Ethyl-3-(4-fluorophenyl)azetidin-3-yl]-6-(naphthalen-2-yl)-4-oxo-3-(trifluoromethyl)-4,5-dihydropyrazolo[1,5-a]pyrazine-2-carboxamide] belongs 5.1 nM; to `Cc1cc(-c2cn3nc(C(=O)NC(c4ccc(F)cc4)C4(O)CC4)c(C(F)(F)F)c3c(=O)[nH]2)ccc1Cl` (single isomer, unassigned) [6-211], 1.18 nM; to `Cc1ccc(-c2cn3nc(C(=O)N[C@@H](c4ccc(F)cc4)C(C)(C)O)c(C(C)C)c3c(=O)[nH]2)cc1C` [Example 1-135, 6-(3,4-Dimethylphenyl)-N-[(1S)-1-(4-fluorophenyl)-2-hydroxy-2-methylpropyl]-4-oxo-3-(propan-2-yl)-4,5-dihydropyrazolo[1,5-a]pyrazine-2-carboxamide], 5.8 nM.
On to `Cc1cc(-c2cn3nc(C(=O)N[C@@H](c4ccc(F)cc4)C(C)(C)O)c(C(C)C)c3c(=O)[nH]2)ccc1Cl` [6-606], for which the IC50 is 2.3 nM.
For `C[C@@H](NC(=O)c1cc2c(=O)[nH]c(-c3ccc4ccccc4c3)cn2n1)c1ccc(C(F)(F)F)cc1` [Example 1-1, 6-(Naphthalen-2-yl)-4-oxo-N-{(1R)-1-[4-(trifluoromethyl)phenyl]ethyl}-4,5-dihydropyrazolo[1,5-a]-pyrazine-2-carboxamide], the IC50 is 1.6 nM.
To `O=C(NC1(c2ccc(F)cc2)CN(C(CF)CF)C1)c1nn2cc(-c3ccc4ccccc4c3)[nH]c(=O)c2c1C(F)(F)F` [Example 1-177, N-[1-(1,3-Difluoropropan-2-yl)-3-(4-fluorophenyl)azetidin-3-yl]-6-(naphthalen-2-yl)-4-oxo-3-(trifluoro-methyl)-4,5-dihydropyrazolo[1,5-a]pyrazine-2-carboxamide] belongs 5 nM; to `Cc1ccc(-c2cn3nc(C(=O)NC(C)(C)C4CC4)c(C4CC4)c3c(=O)[nH]2)cc1Cl` [6-280], 1.5 nM.
To `Cc1ccc(-c2cn3nc(C(=O)NCCC(F)(F)F)c(C(F)(F)F)c3c(=O)[nH]2)cc1F` [6-148] belongs 8.4 nM.

The term IC50 denotes the concentration at which inhibition is half-maximal.
